Test results taken from patent US12521393B2, “Cytotoxicity targeting chimeras for CCR2-expressing cells” (GLAXOSMITHKLINE INTELLECTUAL PROPERTY DEVELOPMENT LIMITED, priority 2021, dated 2026).

How the values were obtained:
[1] = tested on: CCR2 expressing cells (CD11b+Ly6c+Hi) in peripheral blood; assay: In vivo depletion assay, flow cytometry of peripheral blood (Example 201); design: species or system human CCR2 knock-in mice (C57 background); settings: hCCR2 knock-in mice, IV 0.1 mpk compound + 10 mpk anti-cotinine antibody (SEQ ID NO: 13/14), peripheral blood at 48 hr
Method in brief: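 Mice dosed with compound formulated in saline/DMSO/PBS, with anti-cotinine antibody (rabbit variable region, mouse IgG2a Fc) where required, pre-incubated 30 min at room temperature. Terminal peripheral blood RBC-lysed, Fc-blocked, stained for CD45, CD3, CD11b, Ly6C, human CCR2 and 7AAD; percent depletion of CD11b+Ly6c+Hi cells determined by flow cytometry.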

[2] = target: anti-cotinine antibody (SEQ ID NO: 11/12, rabbit variable region with human IgG1 Fc DE mutation); assay: SPR binding of anti-cotinine antibody to ARM compounds, Biacore T200, 37° C. (Example 202); settings: SPR Biacore T200, 37° C., pH 7.4, antibody SEQ ID NO: 11/12 captured on protein A; Kd in molar
Method in brief: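 Antibody captured on a protein A chip; ARM compounds injected at 100 μL/min (200 s association, 2000 s dissociation), 3-fold 5-point series from 200 nM, at 37 °C in HEPES pH 7.4 buffer with 0.005% P20 and 1% DMSO. Double-referenced sensorgrams fit 1:1 for kon, koff, Kd (koff/kon), residence time (1/koff); pKd averaged across runs.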

[3] = tested on: endogenous target monocytes in human PBMC; assay: PBMC ex vivo monocyte depletion flow cytometry assay (Example 200); type: cell-based; settings: with anti-cotinine antibody (SEQ ID NO: 11/12), 18-24 hours, EC50 in molar, read-out: Ex Vivo Depletion Assay pEC50 (converted)
Method in brief: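 Monocyte depletion is reported as pEC50, averaged or given individually across runs, and read by flow cytometry staining CD45, CD14 and CD4 with a viability dye. Compounds, diluted four-fold over 11 points from 1 mM DMSO stocks, were combined with 30 μg/mL Fc-enhanced anti-cotinine antibody and human PBMC, then incubated 18-24 h at 37° C.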

[4] = target: human alpha1 nicotinic acetylcholine (nACh) receptor (Homo sapiens, UniProt P02708); assay: Nicotinic acetylcholine receptor antagonism assay, IONFlux automated patch clamp (Example 203); type: cell-based; settings: for IC50: antagonism of ACh-stimulated human alpha1 nAChR current, patch clamp; for Emax at 10 µM: maximum percentage antagonism at maximum concentration tested 10 μM, read-out: Maximum Response
Method in brief: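 Cells expressing human α1 nAChR were incubated with a compound dose response (top 10 μM or 100 μM), then stimulated with ACh (10 mM), and peak current was read by automated patch clamp. % inhibition was taken against ACh-alone control, corrected for vehicle and run-down, and fit non-linearly for IC50; runs were averaged.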

Chain of human alpha1 nicotinic acetylcholine (nACh) receptor (P02708 21-457): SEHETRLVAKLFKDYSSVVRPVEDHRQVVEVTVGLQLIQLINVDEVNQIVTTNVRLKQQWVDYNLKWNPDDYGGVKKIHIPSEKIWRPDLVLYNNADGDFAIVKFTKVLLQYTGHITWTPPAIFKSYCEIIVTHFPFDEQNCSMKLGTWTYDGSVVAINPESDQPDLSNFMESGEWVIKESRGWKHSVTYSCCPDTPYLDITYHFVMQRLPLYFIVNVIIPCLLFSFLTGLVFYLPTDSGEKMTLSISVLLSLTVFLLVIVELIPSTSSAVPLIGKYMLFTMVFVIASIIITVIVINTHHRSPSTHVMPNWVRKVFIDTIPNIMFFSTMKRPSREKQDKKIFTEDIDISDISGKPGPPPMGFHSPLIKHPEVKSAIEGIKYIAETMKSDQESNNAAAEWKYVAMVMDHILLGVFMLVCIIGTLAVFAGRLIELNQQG
Chain of human alpha1 nicotinic acetylcholine (nACh) receptor (P11230 24-501 partner): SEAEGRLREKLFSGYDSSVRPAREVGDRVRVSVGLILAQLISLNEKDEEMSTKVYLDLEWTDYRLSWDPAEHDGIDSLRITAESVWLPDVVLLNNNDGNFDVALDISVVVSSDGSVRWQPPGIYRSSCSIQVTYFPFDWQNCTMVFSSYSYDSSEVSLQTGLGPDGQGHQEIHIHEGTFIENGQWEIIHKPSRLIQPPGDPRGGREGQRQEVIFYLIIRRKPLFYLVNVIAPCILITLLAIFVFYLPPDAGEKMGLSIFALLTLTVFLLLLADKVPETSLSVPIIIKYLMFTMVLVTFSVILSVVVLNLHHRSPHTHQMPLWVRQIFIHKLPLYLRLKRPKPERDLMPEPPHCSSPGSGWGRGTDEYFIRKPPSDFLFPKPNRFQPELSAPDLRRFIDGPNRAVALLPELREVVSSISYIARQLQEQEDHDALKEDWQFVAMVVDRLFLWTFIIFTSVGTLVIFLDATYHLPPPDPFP
Chain of human alpha1 nicotinic acetylcholine (nACh) receptor (Q07001 22-517 partner): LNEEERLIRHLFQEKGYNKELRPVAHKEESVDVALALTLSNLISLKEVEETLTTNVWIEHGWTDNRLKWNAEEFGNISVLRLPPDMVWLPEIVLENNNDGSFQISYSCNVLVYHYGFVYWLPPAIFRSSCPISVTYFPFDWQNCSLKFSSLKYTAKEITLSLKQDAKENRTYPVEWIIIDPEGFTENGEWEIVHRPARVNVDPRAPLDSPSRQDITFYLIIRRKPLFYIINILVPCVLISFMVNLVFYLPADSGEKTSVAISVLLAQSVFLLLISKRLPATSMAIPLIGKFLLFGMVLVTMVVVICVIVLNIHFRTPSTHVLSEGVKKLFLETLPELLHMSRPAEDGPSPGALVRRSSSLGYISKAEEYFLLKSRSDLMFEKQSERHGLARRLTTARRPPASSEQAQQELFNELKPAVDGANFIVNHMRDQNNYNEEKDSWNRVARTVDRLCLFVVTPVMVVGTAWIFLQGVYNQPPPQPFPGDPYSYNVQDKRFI

Structure (SMILES) | % Depletion of CCR2 expressing cells [1] [%] | pKd of Antibody for ARM Compound of Formula (I) [2] | EC50 [3] [nM] | IC50 [4] [nM] | Emax at 10 µM [4] [%]
CC(C)N(C)[C@@H]1CC[C@H](N2CC[C@H](Nc3ncnc4ccc(C(F)(F)F)cc34)C2=O)[C@H](NC(=O)[C@H]2CC[C@H](NC(=O)CCCO[C@H]3CC[C@H](OCCNC(=O)[C@H]4CC(=O)N(C5CC5)[C@@H]4c4cccnc4)CC3)CC2)C1 [Example 13, (2S,3S)-1-cyclopropyl-N-(2-(((1R,4S)-4-(4-(((1R,4R)-4-(((1R,2S,5R)-5-(isopropyl(methyl)amino)-2-((S)-2-oxo-3-((6-(trifluoromethyl)quinazolin-4-yl)amino)pyrrolidin-1-yl)cyclohexyl)carbamoyl)cyclohexyl)amino)-4-oxobutoxy)cyclohexyl)oxy)ethyl)-5-oxo-2-(pyridin-3-yl)pyrrolidine-3-carboxamide] | 96.07 | 10.511 | – | – | –
CC(C)N(C)[C@@H]1CC[C@H](N2CC[C@H](Nc3ncnc4ccc(C(F)(F)F)cc34)C2=O)[C@H](NC(=O)[C@H]2CC[C@@H](NC(=O)CCCC(=O)NCCCC(=O)NCCCNC(=O)[C@H]3CC(=O)N(C)[C@@H]3c3cccnc3)CC2)C1 [Example 56, N^1-((1S,4s)-4-(((1R,2S,5R)-5-(Isopropyl(methyl)amino)-2-((S)-2-oxo-3-((6-(trifluoromethyl)quinazolin-4-yl)amino)pyrrolidin-1-yl)cyclohexyl)carbamoyl)cyclohexyl)-N^5-(4-((3-((2S,3S)-1-methyl-5-oxo-2-(pyridin-3-yl)pyrrolidine-3-carboxamido)propyl)amino)-4-oxobutyl)glutaramide] | 97 | 9.3185 | – | – | –
CC(C)N(C)[C@@H]1CC[C@H](N2CC[C@H](Nc3ncnc4ccc(C(F)(F)F)cc34)C2=O)[C@H](NC(=O)[C@H]2CC[C@@H](C3CCN(C(=O)CCOCCOCCNC(=O)[C@H]4CC(=O)N(C)[C@@H]4c4cccnc4)CC3)CC2)C1 [Example 72, (2S,3S)-N-(2-(2-(3-(4-((1S,4s)-4-(((1R,2S,5R)-5-(isopropyl(methyl)amino)-2-((S)-2-oxo-3-((6-(trifluoromethyl)quinazolin-4-yl)amino)pyrrolidin-1-yl)cyclohexyl)carbamoyl)cyclohexyl)piperidin-1-yl)-3-oxopropoxy)ethoxy)ethyl)-1-methyl-5-oxo-2-(pyridin-3-yl)pyrrolidine-3-carboxamide] | – | 9.8865 | 7.94 | ≥ 10000 | 32.7
CC(C)N(C)[C@@H]1CC[C@H](N2CC[C@H](Nc3ncnc4ccc(C(F)(F)F)cc34)C2=O)[C@H](NC(=O)[C@H]2CC[C@H](C3CCN(C(=O)CCOCCOCCNC(=O)[C@H]4CC(=O)N(C)[C@@H]4c4cccnc4)CC3)CC2)C1 [Example 73, (2S,3S)-N-(2-(2-(3-(4-((1R,4r)-4-(((1R,2S,5R)-5-(Isopropyl(methyl)amino)-2-((S)-2-oxo-3-((6-(trifluoromethyl)quinazolin-4-yl)amino)pyrrolidin-1-yl)cyclohexyl)carbamoyl)cyclohexyl)piperidin-1-yl)-3-oxopropoxy)ethoxy)ethyl)-1-methyl-5-oxo-2-(pyridin-3-yl)pyrrolidine-3-carboxamide] | – | 9.8185 | 100000 | ≥ 10000 | 4.1
CC(C)N(C)[C@@H]1CC[C@H](N2CC[C@H](Nc3ncnc4ccc(C(F)(F)F)cc34)C2=O)[C@H](NC(=O)COCCOCCNC(=O)CCOCCOCCNC(=O)[C@H]2CC(=O)N(C)[C@@H]2c2cccnc2)C1 [Example 77, (2S,3S)-N-(1-(((1R,2S,5R)-5-(Isopropyl(methyl)amino)-2-((S)-2-oxo-3-((6-(trifluoromethyl)quinazolin-4-yl)amino)pyrrolidin-1-yl)cyclohexyl)amino)-1,10-dioxo-3,6,13,16-tetraoxa-9-azaoctadecan-18-yl)-1-methyl-5-oxo-2-(pyridin-3-yl)pyrrolidine-3-carboxamide] | – | 9.152 | 6.31 | ≥ 10000 | 19.6
CC(C)N(C)[C@@H]1CC[C@H](N2CC[C@H](Nc3ncnc4ccc(C(F)(F)F)cc34)C2=O)[C@H](NC(=O)COCCNC(=O)COCCNC(=O)CCOCCNC(=O)[C@H]2CC(=O)N(C)[C@@H]2c2cccnc2)C1 [Example 151, (2S,3S)-N-(1-(((1R,2S,5R)-5-(Isopropyl(methyl)amino)-2-((S)-2-oxo-3-((6-(trifluoromethyl)quinazolin-4-yl)amino)pyrrolidin-1-yl)cyclohexyl)amino)-1,7,13-trioxo-3,9,16-trioxa-6,12-diazaoctadecan-18-yl)-1-methyl-5-oxo-2-(pyridin-3-yl)pyrrolidine-3-carboxamide] | – | 9.0755 | 2 | – | –
CC(C)N(C)[C@@H]1CC[C@H](N2CC[C@H](Nc3ncnc4ccc(C(F)(F)F)cc34)C2=O)[C@H](NC(=O)CCOCCOCCOCCNc2c(NCCNC(=O)[C@H]3CC(=O)N(C)[C@@H]3c3cccnc3)c(=O)c2=O)C1 [Example 168, (2S,3S)-N-(2-((2-((2-(2-(2-(3-(((1R,2S,5R)-5-(Isopropyl(methyl)amino)-2-((S)-2-oxo-3-((6-(trifluoromethyl)quinazolin-4-yl)amino)pyrrolidin-1-yl)cyclohexyl)amino)-3-oxopropoxy)ethoxy)ethoxy)ethyl)amino)-3,4-dioxocyclobut-1-en-1-yl)amino)ethyl)-1-methyl-5-oxo-2-(pyridin-3-yl)pyrrolidine-3-carboxamide] | – | 9.06 | 1 | – | –
CC(C)N(C)[C@@H]1CC[C@H](N2CC[C@H](Nc3ncnc4ccc(C(F)(F)F)cc34)C2=O)[C@H](NC(=O)[C@H]2CC[C@@H](NC(=O)CCOCCNC(=O)COCCCNC(=O)[C@H]3CC(=O)N(C)[C@@H]3c3cccnc3)CC2)C1 [Example 175, (2S,3S)-N-(3-(2-((2-(3-(((1S,4s)-4-(((1R,2S,5R)-5-(Isopropyl(methyl)amino)-2-((S)-2-oxo-3-((6-(trifluoromethyl)quinazolin-4-yl)amino)pyrrolidin-1-yl)cyclohexyl)carbamoyl)cyclohexyl)amino)-3-oxopropoxy)ethyl)amino)-2-oxoethoxy)propyl)-1-methyl-5-oxo-2-(pyridin-3-yl)pyrrolidine-3-carboxamide] | – | 9.244 | 0.631 | – | –
CC(C)N(C)[C@@H]1CC[C@H](N2CC[C@H](Nc3ncnc4ccc(C(F)(F)F)cc34)C2=O)[C@H](NC(=O)CCCC(=O)N[C@H]2CC[C@H](CNC(=O)CCOCCNC(=O)[C@H]3CC(=O)N(C)[C@@H]3c3cccnc3)CC2)C1 [Example 180, N^1-((1R,2S,5R)-5-(isopropyl(methyl)amino)-2-((S)-2-oxo-3-((6-(trifluoromethyl)quinazolin-4-yl)amino)pyrrolidin-1-yl)cyclohexyl)-N^5-((1S,4R)-4-((3-(2-((2S,3S)-1-methyl-5-oxo-2-(pyridin-3-yl)pyrrolidine-3-carboxamido)ethoxy)propanamido)methyl)cyclohexyl)glutaramide] | – | 9.249 | 1.26 | – | –
CC(C)N(C)[C@@H]1CC[C@H](N2CC[C@H](Nc3ncnc4ccc(C(F)(F)F)cc34)C2=O)[C@H](NC(=O)COCCNC(=O)CCNC(=O)CCOCCOCCNC(=O)[C@H]2CC(=O)N(C)[C@@H]2c2cccnc2)C1 [Example 181, (2S,3S)-N-(1-(((1R,2S,5R)-5-(Isopropyl(methyl)amino)-2-((S)-2-oxo-3-((6-(trifluoromethyl)quinazolin-4-yl)amino)pyrrolidin-1-yl)cyclohexyl)amino)-1,7,11-trioxo-3,14,17-trioxa-6,10-diazanonadecan-19-yl)-1-methyl-5-oxo-2-(pyridin-3-yl)pyrrolidine-3-carboxamide] | – | 9.1645 | 0.398 | – | –
CC(C)N(C)[C@@H]1CC[C@H](N2CC[C@H](Nc3ncnc4ccc(C(F)(F)F)cc34)C2=O)[C@H](NC(=O)[C@H]2CC[C@@H](NC(=O)CCOCCNC(=O)CCCCNC(=O)[C@H]3CC(=O)N(C)[C@@H]3c3cccnc3)CC2)C1 [Example 198, (2S,3S)-N-(5-((2-(3-(((1S,4s)-4-(((1R,2S,5R)-5-(Isopropyl(methyl)amino)-2-((S)-2-oxo-3-((6-(trifluoromethyl)quinazolin-4-yl)amino)pyrrolidin-1-yl)cyclohexyl)carbamoyl)cyclohexyl)amino)-3-oxopropoxy)ethyl)amino)-5-oxopentyl)-1-methyl-5-oxo-2-(pyridin-3-yl)pyrrolidine-3-carboxamide] | – | 9.3835 | 0.501 | – | –
